Like-named read-outs stand apart in the source and are kept apart here.
Tests used:
[1] = biological target: T1, human peripheral type cannabinoid receptor (hCB2) (Homo sapiens, UniProt P34972); test: Binding assay (in vitro), [3H]Win55212-2 displacement, membrane fractions of human CB2-CHO; conditions: for Ki: hCB2 expressed in CHO cells, [3H]Win55212-2 2 nM, 30° C. 90 minutes; for C/S (Ki central type receptors / Ki peripheral type receptors): indicator of selectivity for peripheral type receptors
T1 construct: expressed in transfected cells; host or cells: CHO cells
T1 sequence (P34972 whole entry): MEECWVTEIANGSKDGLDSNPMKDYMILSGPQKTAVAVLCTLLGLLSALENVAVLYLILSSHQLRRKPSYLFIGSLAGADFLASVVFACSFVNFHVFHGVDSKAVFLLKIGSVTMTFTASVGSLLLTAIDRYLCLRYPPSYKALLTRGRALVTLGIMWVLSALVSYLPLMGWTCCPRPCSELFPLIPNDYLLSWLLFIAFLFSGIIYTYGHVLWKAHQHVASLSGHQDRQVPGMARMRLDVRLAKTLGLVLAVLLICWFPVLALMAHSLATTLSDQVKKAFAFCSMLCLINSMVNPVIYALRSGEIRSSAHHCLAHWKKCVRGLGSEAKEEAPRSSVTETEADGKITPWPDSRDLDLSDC
Procedure: (§1) Membrane fractions of human central type cannabinoid receptor (human CB1-CHO, hereinafter called hCB1) and human peripheral type cannabinoid receptor (human CB2-CHO, hereinafter called hCB2) expressed in CHO cells were used as samples. The reference material (hCB1: 20 μg/ml, hCB2: 5 μg/ml), labeled ligand ([^3H]Win55212-2, 2 nM) and unlabeled ligand Win55212-2 or test compound were added to a 24-well round bottom plate, and the plate was incubated at 30° C. for 90 minutes. 50 mM Tris-HB55 containing 0.2% BSA was used as an assay buffer. After incubation, the mixture was filtered (Packard, Unifilter 24GF/B) and dried, and then a scintillation solution (Packard, Microsint-20) was added thereto to determine the radioactivity of the sample (Packard, Top count A9912V). Nonspecific binding was determined by the addition of excessive amount of Win55212-2 (10 μM), and specific binding was calculated by subtracting the nonspecific binding from total binding determined by the addition of the labeled ligand only. The test compound was dissolved in DMSO to make the final concentration in DMSO to be 0.1%. IC50 value was determined from the proportion of the bound test compound in the specific binding, and K1 value of the test compound was calculated from the ICso value and Kd value of [^3H]Win55212-2. K1 value for the central type receptors/K1 value for peripheral type receptors (C/S) was also calculated as an indicator of the selectivity of the test compound for peripheral type receptors.

[2] = biological target: T2, human central type cannabinoid receptor (hCB1) (Homo sapiens, UniProt P21554); test: Binding assay (in vitro), [3H]Win55212-2 displacement, membrane fractions of human CB1-CHO; conditions: hCB1 expressed in CHO cells, [3H]Win55212-2 2 nM, 30° C. 90 minutes
T2 construct: expressed in transfected cells; host or cells: CHO cells
T2 sequence (P21554 whole entry): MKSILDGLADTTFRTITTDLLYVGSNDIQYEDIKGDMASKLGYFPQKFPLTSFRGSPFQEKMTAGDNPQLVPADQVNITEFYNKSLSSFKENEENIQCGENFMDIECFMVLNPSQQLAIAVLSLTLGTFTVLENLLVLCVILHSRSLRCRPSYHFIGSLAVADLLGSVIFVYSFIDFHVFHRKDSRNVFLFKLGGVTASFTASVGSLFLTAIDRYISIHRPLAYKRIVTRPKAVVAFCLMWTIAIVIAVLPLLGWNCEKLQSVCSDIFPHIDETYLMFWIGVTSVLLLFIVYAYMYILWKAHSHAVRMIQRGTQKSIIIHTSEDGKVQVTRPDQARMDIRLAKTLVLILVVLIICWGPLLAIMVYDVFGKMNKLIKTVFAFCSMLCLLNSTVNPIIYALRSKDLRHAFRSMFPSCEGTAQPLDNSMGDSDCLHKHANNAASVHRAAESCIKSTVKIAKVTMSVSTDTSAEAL
Procedure: as §1

[3] = Ki value Peripheral type receptor (S)
[4] = read-out: Ki value Central type receptor (C)
[5] = read-out: Ki value Peripheral type receptor (S)
[6] = Ki value Central type receptor (C)

Row | Structure (SMILES) | Ki [1, 3] [nM] | C/S (Ki central type receptors / Ki peripheral type receptors) [1] | Ki [2, 4] [nM] | Ki [1, 5] [nM] | Ki [2, 6] [nM]
1 | CCCCCOc1cc2cc(C(=O)NCc3ccc4c(c3)OCO4)c(=O)n(C)c2cc1OC [Example 3-45, 1-methyl-7-methoxy-2-oxo-6-pentyloxy-1,2-dihydroquinoline-3-carboxylic acid (3,4-methylenedioxybenzyl)amide] | 0.032 | 11902 | 381 |  | 
2 | CCCCOc1c(OC)ccc2cc(CNC(=O)Cc3ccc(O)cc3)c(=O)[nH]c12 [Example 8-2, N-[(8-butoxy-7-methoxy-2-oxo-1,2-dihydroquinoline-3-yl)methyl]-(4-hydroxyphenyl)acetamide] | 0.27 | 2692 | 727 |  | 
3 | CCCCCOc1cc2cc(C(=O)NCCc3ccc(F)cc3)c(=O)[nH]c2cc1OC [Example 3-32, 7-methoxy-2-oxo-6-pentyloxy-1,2-dihydroquinoline-3-carboxylic acid [2-(4-fluorophenyl)ethyl]amide] | 0.036 | 66604 | 2400 |  | 
4 | CCOc1c(OC)ccc2cc(CN3CCOCC3)c(=O)[nH]c12 [Example 7-3, 8-ethoxy-7-methoxy-3-morpholinomethyl-2-oxo-1,2-dihydroquinoline] |  | 10735 | 666 | 0.062 | 
5 | CCCCCOc1c(OC)ccc2cc(C(=O)O)c(=O)[nH]c12 [Example 2-1, 7-methoxy-2-oxo-8-pentyloxy-1,2-dihydroquinoline-3-carboxylic acid] |  | 487 | 4330 | 8.9 | 
6 | CCCCCOc1c(OC)ccc2cc(C(=O)NCCc3ccc(O)cc3)c(=O)n(C)c12 [Example 3-41, 1-methyl-7-methoxy-2-oxo-8-pentyloxy-1,2-dihydroquinoline-3-carboxylic acid [2-(4-hydroxyphenyl)ethyl]amide] | 0.35 | 176 |  |  | 62
7 | CCCCCOc1c(OC)ccc2cc(C(=O)NCCc3ccc(F)cc3)c(=O)[nH]c12 [Example 3-8, 7-methoxy-2-oxo-8-pentyloxy-1,2-dihydroquinoline-3-carboxylic acid [2-(4-fluorophenyl)ethyl]amide] | 0.019 | 4275 |  |  | 81
8 | CCCOc1c(OC)ccc2cc(C(=O)O)c(=O)[nH]c12 [Example 2-4, 7-methoxy-2-oxo-8-propoxy-1,2-dihydroquinoline-3-carboxylic acid] |  | 28273 | 905 | 0.032 | 
9 | CCOc1c(OC)ccc2cc(C(=O)NCCc3ccc(F)cc3)c(=O)[nH]c12 [Example 3-18, 8-ethoxy-7-methoxy-2-oxo-1,2-dihydroquinoline-3-carboxylic acid [2-(4-fluorophenyl)ethyl]amide] | 7.1 | 247 | 1750 |  | 
10 | CCCCCOc1cc2cc(C(=O)NCCN3CCOCC3)c(=O)n(C)c2cc1OC [Example 3-44, 1-methyl-7-methoxy-2-oxo-6-pentyloxy-1,2-dihydroquinoline-3-carboxylic acid (2-morpholinoethyl)amide] | 0.18 | 1075 | 193 |  | 
11 | CCCCCOc1cc2cc(C(=O)NCCN3CCOCC3)c(=O)[nH]c2cc1OC [Example 3-34, 7-methoxy-2-oxo-6-pentyloxy-1,2-dihydroquinoline-3-carboxylic acid (2-morpholinoethyl) amide] | 0.011 | 15672 |  |  | 
12 | CCOc1c(OC)ccc2cc(C(=O)NCCc3ccncc3)c(=O)[nH]c12 [Example 3-6, 8-ethoxy-7-methoxy-2-oxo-1,2-dihydroquinoline-3-carboxylic acid (2-pyridine-4-ylethyl)amide] |  |  | 609 |  | 

Reference: patent US6806276B2, “2-oxoquinoline compounds and pharmaceutical uses thereof” (Japan Tobacco Inc., priority 1999, dated 2004)
